Columns and labels:
common ragweed = test: Test C pre-/postemergence herbicide test; assay type: in vivo, Ambrosia elatior; parameters: key to Plant response rating, Ragweed: 0 = no effect, 100 = complete control; conditions: preemergence; for Plant response rating (0 = no effect, 100 = complete control), Ragweed: 62 g ai/ha
Procedure, shortened: (§1)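 Seeds were planted and sprayed preemergence with test chemicals in a non-phytotoxic solvent mixture containing surfactant; postemergence treatments went onto plants 2 to 18 cm tall (1- to 4-leaf stage). After 12 to 14 days in a greenhouse, injury was rated visually against untreated controls on a 0–100 scale.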

kochia = test: Test C pre-/postemergence herbicide test; assay type: in vivo, Kochia scoparia; conditions: preemergence; for Plant response rating (0 = no effect, 100 = complete control), Kochia: 62 g ai/ha
Procedure, shortened: as §1

pigweed = test: Test B pre-/postemergence herbicide test; assay type: in vivo, Amaranthus retroflexus; conditions: for Pigweed plant response rating: postemergence, visual rating
Procedure, shortened: (§2)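 Plants compared with untreated controls 13–15 days post-treatment and given a visual 0–100 injury score. Applications: preemergence to seeds; postemergence at 1- to 4-leaf (2–18 cm); paddy species flooded, 2-leaf stage. Vehicle non-phytotoxic, surfactant included.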

Surinam grass = test: Test C pre-/postemergence herbicide test; assay type: in vivo, Urochloa decumbens; conditions: preemergence; for Plant response rating (0 = no effect, 100 = complete control), Surinam Grass: 62 g ai/ha
Procedure, shortened: as §1

[1] = tested on: smallflower umbrella sedge; test: Test C flooded paddy test; assay type: in vivo, Cyperus difformis; conditions: for Plant response rating, Sedge, Umbrella: 500 g ai/ha, visual rating after 12 to 14 days
giant foxtail = test: Test B pre-/postemergence herbicide test; assay type: in vivo, Setaria faberi
Procedure, shortened: as §2

goosegrass = test: Test C pre-/postemergence herbicide test; assay type: in vivo, Eleusine indica; conditions: preemergence; for Plant response rating (0 = no effect, 100 = complete control), Goosegrass: 62 g ai/ha
Procedure, shortened: as §1

lambsquarters = test: Test C pre-/postemergence herbicide test; assay type: in vivo, Chenopodium album; conditions: preemergence
Procedure, shortened: as §1

large crabgrass = test: Test C pre-/postemergence herbicide test; assay type: in vivo, Digitaria sanguinalis; conditions: preemergence; for Plant response rating (0 = no effect, 100 = complete control), Crabgrass, Large: 62 g ai/ha
Procedure, shortened: as §1

[2] = 125 g ai/ha, scale 0 (no effect) to 100 (complete control), visual, 12 to 14 days
[3] = 500 g ai/ha, visual rating 0-100, 0 no effect, 100 complete control, preemergence
[4] = 125 g ai/ha, scale 0 (no effect) to 100 (complete control)
[5] = preemergence, 125 g ai/ha, 0 to 100 scale, 0 is no effect, 100 is complete control
[6] = 62 g ai/ha, scale 0 to 100 (0 no effect, 100 complete control)
[7] = 250 g ai/ha, scale of 0 to 100, 0 is no effect, 100 is complete control
[8] = scale 0 to 100 (0 no effect, 100 complete control)
[9] = postemergence, 125 g ai/ha, visual rating, scale 0 (no effect) to 100 (complete control)
[10] = 250 g ai/ha, scale 0 to 100 (0 no effect, 100 complete control), visual, 12 to 14 days
[11] = Postemergence, 500 g ai/ha, visual rating after 13 to 15 days, scale 0 (no effect) to 100 (complete control)

CC(=O)c1cccc(NC(=O)c2cc(C(C)(C)C)nn2CCF)c1 [Compound 128]
Plant response rating (0 = no effect, 100 = complete control), Ragweed (common ragweed): 10
Plant response rating, Ragweed (common ragweed; [2]): 20
Plant response rating (0 = no effect, 100 = complete control), Kochia (kochia): 0
Plant response rating, Kochia (kochia; [2]): 0
Plant response rating, Pigweed (pigweed; [3]): 80
Pigweed plant response rating (pigweed; [4]): 20
Pigweed plant response rating (pigweed; 500 g ai/ha, scale 0 (no effect) to 100 (complete control)): 60
Plant response rating, Pigweed (pigweed; [5]): 50
Plant response rating (0 = no effect, 100 = complete control), Surinam Grass (Surinam grass): 30
Plant response rating, Surinam Grass (Surinam grass; [2]): 60
Sedge, Umbrella plant response rating [1, 6]: 80
Sedge, Umbrella plant response rating ([1]; 125 g ai/ha, scale 0 to 100 (0 no effect, 100 complete control)): 90
Sedge, Umbrella plant response rating [1, 7]: 95
Plant response rating, Sedge, Umbrella [1, 8]: 95
Plant response rating, Foxtail, Giant (giant foxtail; [3]): 60
Foxtail, Giant plant response rating (giant foxtail; [9]): 20
Foxtail, Giant plant response rating (giant foxtail; postemergence, 500 g ai/ha, visual rating, scale 0 (no effect) to 100 (complete control)): 20
Plant response rating, Foxtail, Giant (giant foxtail; [5]): 40
Plant response rating (0 = no effect, 100 = complete control), Goosegrass (goosegrass): 80
Plant response rating, Goosegrass (goosegrass; [2]): 90
Plant response rating, Lambsquarters (lambsquarters; [2]): 30
Plant response rating (0 = no effect, 100 = complete control), Crabgrass, Large (large crabgrass): 100
Plant response rating, Crabgrass, Large (large crabgrass; [2]): 100

CCn1nc(C(C)(C)C)cc1C(=O)Nc1cccc(C(=O)NCC2CC2)c1 [Compound 62]
Plant response rating, Ragweed (common ragweed; 31 g ai/ha, scale 0 to 100): 0
Plant response rating (0 = no effect, 100 = complete control), Ragweed (common ragweed): 10
Plant response rating, Ragweed (common ragweed; [2]): 20
Plant response rating, Ragweed (common ragweed; [10]): 85
Plant response rating, Kochia (kochia; 31 g ai/ha, scale 0 to 100): 100
Plant response rating (0 = no effect, 100 = complete control), Kochia (kochia): 100
Plant response rating, Kochia (kochia; [2]): 100
Plant response rating, Kochia (kochia; [10]): 100
Plant response rating, Pigweed (pigweed; [11]): 90
Pigweed plant response rating (pigweed; [4]): 80
Plant response rating, Pigweed (pigweed; [5]): 100
Plant response rating, Surinam Grass (Surinam grass; 31 g ai/ha, scale 0 to 100): 0
Plant response rating (0 = no effect, 100 = complete control), Surinam Grass (Surinam grass): 5
Plant response rating, Surinam Grass (Surinam grass; [2]): 10
Plant response rating, Surinam Grass (Surinam grass; [10]): 50
Sedge, Umbrella plant response rating [1, 6]: 45
Sedge, Umbrella plant response rating ([1]; 125 g ai/ha, scale of 0 to 100, 0 is no effect, 100 is complete control): 60
Sedge, Umbrella plant response rating [1, 7]: 80
Plant response rating, Sedge, Umbrella [1, 8]: 85
Plant response rating, Foxtail, Giant (giant foxtail; [11]): 30
Foxtail, Giant plant response rating (giant foxtail; Preemergence, 500 g ai/ha, scale 0 to 100): 90
Foxtail, Giant plant response rating (giant foxtail; [9]): 10
Plant response rating, Foxtail, Giant (giant foxtail; [5]): 70
Plant response rating, Goosegrass (goosegrass; 31 g ai/ha, scale 0 to 100): 0
Plant response rating (0 = no effect, 100 = complete control), Goosegrass (goosegrass): 10
Plant response rating, Goosegrass (goosegrass; [2]): 70
Plant response rating, Goosegrass (goosegrass; [10]): 85
Plant response rating, Lambsquarters (lambsquarters; 31 g ai/ha, scale 0 to 100): 100
Plant response rating (0 = no effect, 100 = complete control), Lambsquarters (lambsquarters; 62 g ai/ha): 100
Plant response rating, Lambsquarters (lambsquarters; [2]): 100
Plant response rating, Lambsquarters (lambsquarters; [10]): 100
Plant response rating, Crabgrass, Large (large crabgrass; 31 g ai/ha, scale 0 to 100): 5
Plant response rating (0 = no effect, 100 = complete control), Crabgrass, Large (large crabgrass): 40
Plant response rating, Crabgrass, Large (large crabgrass; [2]): 90
Plant response rating, Crabgrass, Large (large crabgrass; [10]): 90

Source: patent US20060069132A1, “Azolecarboxamide herbicides” (priority 2004, published 2006)
